What was measured:
[1] = tested on: AMARE; assay: Pre-emergence action against AMARE, 1280 g/ha; assay type: in vivo, Amaranthus retroflexus; settings: scored visually after about 3 weeks vs untreated controls (100% = plants have died)
Outline: (§1)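 Compound applied as WP or EC in aqueous spray (0.5% additive, 600 L/ha) to the surface of sandy loam covering freshly sown seeds. After about 3 weeks under good greenhouse conditions, damage is given as visual percentage, 100% meaning plant death.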

[2] = tested on: AVEFA; assay: Post-emergence action at 320 g/ha against AVEFA; assay type: in vivo; settings: visual rating about 3 weeks after treatment vs untreated controls
Outline: (§2)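 Greenhouse pot plants in sandy loam received a foliar spray of WP- or EC-formulated compound at the one-leaf stage. Percent activity against untreated controls was assessed visually around three weeks later.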

[3] = tested on: SETVI; assay: Pre-emergence action at 320 g/ha against SETVI; assay type: in vivo, Setaria viridis; settings: visual scoring after about 3 weeks vs untreated controls
Outline: (§3)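 WP/EC formulations applied pre-emergence to covering soil, water rate 600 l/ha, 0.5% additive. Greenhouse, ~3 weeks. Visual % damage vs untreated (0–100%).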

[4] = tested on: ECHCG; assay: Pre-emergence action against ECHCG, 1280 g/ha; assay type: in vivo, Echinochloa crus-galli; settings: visual scoring after about 3 weeks vs untreated controls, 100% = plants have died, 0% = like control plants
Outline: as §1

[5] = tested on: STEME; assay: Pre-emergence action against STEME, 1280 g/ha; assay type: in vivo, Stellaria media; settings: scored visually after about 3 weeks vs untreated controls (100% = plants have died)
Outline: as §1

[6] = tested on: STEME; assay: Pre-emergence action at 320 g/ha against STEME; assay type: in vivo, Stellaria media; settings: greenhouse, scored visually after about 3 weeks vs untreated controls, 100% = plants have died, 0% = like control plants
Text: b) Seeds of monocotyledonous and dicotyledonous weed plants and crop plants are placed in plastic or organic planting pots and covered with soil. The compounds of the invention, formulated in the form of wettable powders (WP) or as emulsion concentrates (EC), are then applied onto the surface of the covering soil as aqueous suspension or emulsion with addition of 0.5% additive at a water application rate of 600 l/ha (converted). After the treatment, the pots are placed in a greenhouse and kept under good growth conditions for the trial plants. After about 3 weeks, the effect of the preparations is scored visually in comparison with untreated controls as percentages. For example, 100% activity=the plants have died, 0% activity=like control plants. Tables 13 to 26 below show the effects of selected compounds of the general formula (I) on various harmful plants and at an application rate corresponding to 320 g/ha, which were obtained by the experimental procedure mentioned above.

[7] = tested on: VERPE; assay: Pre-emergence action against VERPE, 1280 g/ha; assay type: in vivo, Veronica persica; settings: scored visually after about 3 weeks vs untreated controls (100% = plants have died)
Outline: as §1

[8] = tested on: MATIN; assay: Post-emergence action against MATIN, 1.28 kg/ha; assay type: in vivo, Tripleurospermum inodorum (Matricaria inodora); settings: dosage 1280 g/ha, visual rating about 3 weeks after treatment vs untreated controls (100% = plants died)
Outline: (§4)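 Foliar application at the one-leaf stage: compound as WP or EC in water with 0.5% additive, sprayed at 600 L/ha. Plants are kept about 3 weeks in the greenhouse, then % herbicidal action is estimated visually (100% = death).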

[9] = tested on: MATIN; assay: Pre-emergence action against MATIN, 1280 g/ha; assay type: in vivo, Tripleurospermum inodorum (Matricaria inodora); settings: scored visually after about 3 weeks vs untreated controls (100% = plants have died)
Outline: as §1

[10] = tested on: AMARE; assay: Pre-emergence action at 320 g/ha against AMARE; assay type: in vivo, Amaranthus retroflexus; settings: visual scoring after about 3 weeks vs untreated controls
Outline: as §3

[11] = tested on: POAAN; assay: Post-emergence action against POAAN, 1.28 kg/ha; assay type: in vivo, Poa annua; settings: dosage 1280 g/ha, visual rating about 3 weeks after treatment vs untreated controls
Outline: as §4

[12] = tested on: ALOMY; assay: Post-emergence action against ALOMY, 320 g/ha; assay type: in vivo, Alopecurus myosuroides; settings: dosage 320 g/ha, visual rating about 3 weeks after treatment vs untreated controls (100% = plants died)
Outline: as §2

[13] = tested on: DIGSA; assay: Post-emergence action against DIGSA, 1.28 kg/ha; assay type: in vivo, Digitaria sanguinalis; settings: dosage 1280 g/ha, visual rating about 3 weeks after treatment vs untreated controls
Outline: as §4

[14] = tested on: AMARE; assay: Post-emergence action against AMARE, 1.28 kg/ha; assay type: in vivo, Amaranthus retroflexus; settings: dosage 1280 g/ha, visual rating about 3 weeks after treatment vs untreated controls (100% = plants died)
Outline: as §4

[15] = tested on: LOLRI; assay: Pre-emergence action against LOLRI, 1280 g/ha; assay type: in vivo, Lolium rigidum; settings: visual scoring after about 3 weeks vs untreated controls, 100% = plants have died, 0% = like control plants
Outline: as §1

[16] = tested on: VERPE; assay: Post-emergence action against VERPE, 1.28 kg/ha; assay type: in vivo, Veronica persica; settings: dosage 1280 g/ha, visual rating about 3 weeks after treatment vs untreated controls (100% = plants died)
Outline: as §4

[17] = tested on: VIOTR; assay: Post-emergence action at 320 g/ha against VIOTR; assay type: in vivo, Viola tricolor; settings: visual rating about 3 weeks after treatment vs untreated controls
Text: (§5) Accordingly, the compounds of the invention have good herbicidal action against a broad spectrum of weed grasses and broad-leaved weeds and are therefore suitable for controlling unwanted vegetation by the post-emergence method. • b) Seeds of monocotyledonous and dicotyledonous weeds and crop plants are placed in sandy loam in plastic or organic planting pots, covered with soil and cultivated in a greenhouse under controlled growth conditions. 2 to 3 weeks after sowing, the test plants are treated at the one-leaf stage. The compounds of the invention, formulated in the form of wettable powders (WP) or as emulsion concentrates (EC), are then sprayed onto the green parts of the plants as aqueous suspension or emulsion with addition of 0.5% additive at a water application rate of 600 l/ha (converted). After the test plants have been kept in the greenhouse under optimum growth conditions for about 3 weeks, the activity of the preparations is rated visually in comparison to untreated controls. For example, 100% activity=the plants have died, 0% activity=like control plants. Tables 39 to 49 below show the effects of selected compounds of the general formula (I) according to Tables 1 and 2 on various harmful plants and at an application rate corresponding to 320 g/ha, which were obtained by the experimental procedure mentioned above.

[18] = tested on: VIOTR; assay: Pre-emergence action at 320 g/ha against VIOTR; assay type: in vivo, Viola tricolor; settings: dosage 320 g/ha
Outline: as §3

[19] = tested on: DIGSA; assay: Pre-emergence action against DIGSA, 1280 g/ha; assay type: in vivo, Digitaria sanguinalis; settings: visual scoring after about 3 weeks vs untreated controls, 100% = plants have died, 0% = like control plants
Outline: as §1

[20] = tested on: STEME; assay: Post-emergence action against STEME, 1.28 kg/ha; assay type: in vivo, Stellaria media; settings: dosage 1280 g/ha, visual rating about 3 weeks after treatment vs untreated controls (100% = plants died)
Outline: as §4

[21] = tested on: DIGSA; assay: Pre-emergence action at 320 g/ha against DIGSA; assay type: in vivo, Digitaria sanguinalis; settings: visual scoring after about 3 weeks vs untreated controls
Outline: as §3

[22] = tested on: ABUTH; assay: Post-emergence action against ABUTH, 1.28 kg/ha; assay type: in vivo, Abutilon theophrasti; settings: dosage 1280 g/ha, visual rating about 3 weeks after treatment vs untreated controls (100% = plants died)
Outline: as §4

[23] = tested on: SETVI; assay: Post-emergence action against SETVI, 1.28 kg/ha; assay type: in vivo, Setaria viridis; settings: dosage 1280 g/ha, visual rating about 3 weeks after treatment vs untreated controls
Outline: as §4

[24] = tested on: SETVI; assay: Pre-emergence action against SETVI, 1280 g/ha; assay type: in vivo, Setaria viridis; settings: visual scoring after about 3 weeks vs untreated controls, 100% = plants have died, 0% = like control plants
Outline: as §1

[25] = tested on: POAAN; assay: Pre-emergence action against POAAN, 1280 g/ha; assay type: in vivo, Poa annua; settings: visual scoring after about 3 weeks vs untreated controls, 100% = plants have died, 0% = like control plants
Outline: as §1

[26] = tested on: POLCO; assay: Pre-emergence action at 320 g/ha against POLCO; assay type: in vivo, Fallopia convolvulus (Polygonum convolvulus); settings: visual scoring after about 3 weeks vs untreated controls
Outline: as §3

[27] = tested on: HORMU; assay: Post-emergence action at 320 g/ha against HORMU; assay type: in vivo, Hordeum murinum; settings: visual rating about 3 weeks after treatment vs untreated controls
Text: as §5

[28] = tested on: LOLRI; assay: Post-emergence action against LOLRI, 1.28 kg/ha; assay type: in vivo, Lolium rigidum; settings: dosage 1280 g/ha, visual rating about 3 weeks after treatment vs untreated controls
Outline: as §4

[29] = tested on: SETVI; assay: Post-emergence action at 320 g/ha against SETVI; assay type: in vivo, Setaria viridis; settings: visual rating about 3 weeks after treatment vs untreated controls
Outline: as §2

[30] = tested on: POLCO; assay: Post-emergence action at 320 g/ha against POLCO; assay type: in vivo, Fallopia convolvulus (Polygonum convolvulus); settings: visual rating about 3 weeks after treatment vs untreated controls
Text: as §5

COC(=O)C(C)Oc1nn(-c2ccccc2)c(-c2ccnc(Cl)c2)c1Cl (stereo not drawn) [VIII-001]
100%: Pre-emergence action against SETVI in % [3] | Pre-emergence action against ECHCG [4] | Pre-emergence action against VERPE [7] | Post-emergence action against POAAN [11] | Pre-emergence action against LOLRI [15] | Post-emergence action against VERPE [16] | Post-emergence action against STEME [20] | Pre-emergence action against DIGSA in % [21] | Pre-emergence action against SETVI [24] | Pre-emergence action against POAAN [25]
90%: Pre-emergence action against AMARE [1] | Pre-emergence action against STEME [5] | Pre-emergence action at 320 g/ha against STEME in % [6] | Post-emergence action against MATIN [8] | Pre-emergence action against MATIN [9] | Pre-emergence action against AMARE in % [10] | Post-emergence action against ALOMY [12] | Post-emergence action against DIGSA [13] | Post-emergence action against AMARE [14] | Pre-emergence action against VIOTR in % [18] | Pre-emergence action against DIGSA [19] | Post-emergence action against ABUTH [22] | Post-emergence action against SETVI [23] | Pre-emergence action against POLCO in % [26] | Post-emergence action against LOLRI [28] | Post-emergence action against POLCO in % [30]
80%: Post-emergence action against AVEFA in % [2] | Post-emergence action against VIOTR in % [17] | Post-emergence action against HORMU in % [27] | Post-emergence action against SETVI in % [29]

Source: patent US12180187B2, “1-phenyl-5-azinylpyrazolyl-3-oxyalkyl acids and their use for controlling unwanted plant growth” (BAYER AKTIENGESELLSCHAFT, priority 2019, dated 2024)
